Key:
[1] = system: superficial venous anatomy of the ears; assay: Photodynamic treatment of superficial venous anatomy of rabbit ears (IV LS11, then 664 nm LED light); type: in vivo, New Zealand White Rabbits
Description: The superficial venous anatomy of the ears of New Zealand White Rabbits were treated by injecting light-reactive agent LS11 (Talaporfin Sodium) in doses selected to approximate a human dose, and thereafter exposing the superficial venous anatomy to light at a wavelength of 664 nm in dose periods ranging from 8 to 12 minutes.
A total of twelve rabbits were treated. Each rabbit (weighing approximately six pounds) was intravaneously sedated for approximately 25 minutes using Ketamine and secured to a treatment table before being treated. The ears were shaved clean of hair and skin prepped with alcohol.
LS11 (Talaporfin Sodium, from Light Sciences Oncology, Inc.) was selected as the light reactive agent 14. […] Different doses of LS11 (at a concentration of 0.125 mg per cc) were administered to different rabbits, at 0.25 mg/kg; 0.50 mg/kg; 1.0 mg/kg; and 1.5 mg/kg, respectively. The doses were selected to approximate a human dose of 3 mg/ml to 10 mg/ml (a dose of 0.2 to 0.5 mg/kg).
The doses were administered to each rabbit's ear intravenously in a slow bolus method over a period of 5 minutes. After a pre-selected delay of ten minutes following the injection, a light-applying carrier 60 of the type shown in FIG. 18A (with a linear array of three LED's) was laid on the head of the rabbit over the treated ear, which was held tight against the carrier (see FIG. 20). […]

cancer (solid tumors) = conditions: with array of light emitting diodes; preclinical and human clinical trials in United States, Europe and Japan; cited from earlier work

## C=Cc1c(C)c2cc3nc(c(CC(=O)N[C@@H](CC(=O)O)C(=O)O)c4[nH]c(cc5nc(cc1[nH]2)C(C)=C5CC)c(C)c4C(=O)O)[C@@H](CCC(=O)O)[C@@H]3C [LS11, mono-L-aspartyl chlorine e6]
[1]; IV 0.25, 0.50, 1.0 or 1.5 mg/kg, 664 nm light for 8 to 12 minutes, other ear as control
  Visible alterations in the superficial venous anatomy (shrinkage of veins) in treated ear: Visible alterations in the superficial venous anatomy due to shrinkage of veins in the treated regions were observed
[1]; LS11 dose 1.5 mg/kg IV, light dose 8 min of 664 nm light
  Alteration of superficial venous anatomy, treated ear vs control ear (FIG. 21): visibly alter the superficial venous anatomy, due to shrinkage of veins in the targeted region
Cancer (solid tumors)
  Efficacy in treating cancer (solid tumors): has shown efficacy in treating cancer (solid tumors)
